Measured values published in US20190284192A1, “NITROGENOUS MACROCYCLIC COMPOUND, PREPARATION METHOD THEREFOR, PHARMACEUTICAL COMPOSITION AND APPLICATION THEREOF” (LUOXIN PHARMACEUTICAL (SHANGHAI) CO., LTD., priority 2016, published 2019).
Read-outs that look alike come from different tables or passages of the source.

Key:
BRD4 (BD1) = target: T1, BRD4 (BD1) (Homo sapiens, UniProt O60885); assay: BRD4 (BD1) bromodomain binding, HTRF; conditions: 2 h incubation at r.t.
T1 construct: Each member comprises two tandem bromodomains (BD1 and BD2) for recognizing the acetylated lysine residues

BRD4 (BD2) = target: T2, BRD4 (BD2) (Homo sapiens, UniProt O60885); assay: BRD4 (BD2) bromodomain binding, HTRF; conditions: 2 h incubation at r.t.
T2 construct: Each member comprises two tandem bromodomains (BD1 and BD2) for recognizing the acetylated lysine residues

MV-4-11 cells = assay: Inhibitory effect on MV-4-11 cells (CellTiter-Glo); format: cell-based; conditions: Homo sapiens, read-out: MV-4-11
[1] = MV4-11, 72 hours, CellTiter-Glo

| Structure (SMILES) | IC50 (BRD4 (BD1)) [nM] | IC50 (BRD4 (BD2)) [nM] | IC50 (MV-4-11 cells; [1]) [nM] | IC50 (MV-4-11 cells; MV4-11, 72 h) [nM] |
| --- | --- | --- | --- | --- |
| CC(C)NC(=O)C[C@@H]1N=C(c2ccc(Cl)cc2)c2ccccc2-c2cn(C)c(=O)cc21 [Compound 4032, (S)-2-(7-(4-chlorophenyl)-2-methyl-3-oxo-3,5-dihydro-2H-benzo[c]pyrido[3,4-e]azepin-5-yl)-N-isopropylacetamide] | 3 | 2 | 6 |  |
| CCS(=O)(=O)Cc1ccc2c(c1)-c1cn(C)c(=O)cc1[C@@H](C)N=C2c1ccc(F)cc1 [Compound 4033, (R)-10-((ethylsulfone)methyl)-7-(4-fluorophenyl)-2,5-dimethyl-2,5-dihydro-3H-benzo[c]pyrido[3,4-e]azepin-3-ketone] | 341 | 144 | 985 |  |
| CCNC(=O)C[C@@H]1N=C(c2ccc(Cl)cc2)c2cc(F)ccc2-c2cn(C)c(=O)cc21 [Compound 4034, (S)-2-(7-(4-chlorophenyl)-9-fluoro-2-methyl-3-oxo-3,5-dihydro-2H-benzo[c]pyrido[3,4-e]azepin-5-yl)N-ethyl acetamide] | 4 | 1 | 15 |  |
| CCS(=O)(=O)Cc1ccc2c(c1)-c1cn(C)c(=O)cc1[C@H](C)N=C2c1ccc(Cl)cc1 [Compound 4037, (S)-10-((ethylsulfonyl)methyl)-7-(4-chlorophenyl)-2,5-dimethyl-2,5-dihydro-3H-benzo[c]pyrido[3,4-e]azepin-3-ketone] | 2 | 1 | 6 |  |
| CCS(=O)(=O)Cc1ccc2c(c1)-c1cn(C)c(=O)cc1[C@H](C(F)(F)F)N=C2c1ccc(F)cc1 [Compound 4040, (R)-10-((ethylsulfonyl)methyl)-7-(4-flurophenyl)-2-methyl-5-(trifluoromethyl)-2,5-dihydro-3H-benzo[c]pyrido[3,4-e]azepin-3-ketone] | 5 | 2 | 43 |  |
| CCS(=O)(=O)Cc1ccc2c(c1)-c1cn(C)c(=O)cc1[C@H](C1CC1)N=C2c1ccc(F)cc1 [Compound 4042, (S)-5-cyclopropyl-10-((ethylsulfonyl)methyl)-7-(4-flurophenyl)-2-methyl-2,5-dihydro-3H-benzo[c]pyrido[3,4-e]azepin-3-ketone] | 1 | 1 | 7 |  |
| C[C@@H]1N=C(c2ccc(F)cc2)c2ccc(CS(=O)(=O)C(F)(F)F)cc2-c2cn(C)c(=O)cc21 [Compound 4043, (S)-7-(4-flurophenyl)-2,5-dimethyl-10-((trifluoromethylsulphone)methyl)-2,5-dihydro-3H-benzo[c]pyrido[3,4-e]azepin-3-ketone] | 1 | 2 | 8 |  |
| CC(C)S(=O)(=O)Cc1ccc2c(c1)-c1cn(C)c(=O)cc1[C@H](C)N=C2c1ccc(F)cc1 [Compound 4044, (S)-10-((isopropylsulfone)methyl)-7-(4-flurophenyl)-2,5-dimethyl-2,5-dihydro-3H-benzo[c]pyrido[3,4-e]azepin 3-ketone] | 1 | 1 | 7 |  |
| C[C@@H]1N=C(c2ccc(F)cc2)c2ccc(CS(=O)(=O)C3CC3)cc2-c2cn(C)c(=O)cc21 [Compound 4045, (S)-7-(4-flurophenyl)-2,5-dimethyl-10-((cyclopropylsulfone)methyl)-2,5-dihydro-3H-benzo[c]pyrido[3,4-e]azepin-3-ketone] | 1 | 1 | 8 |  |
| CCS(=O)(=O)Cc1ccc2c(c1)-c1cn(C)c(=O)cc1[C@H](C)N=C2c1ccc(F)cc1F [Compound 4046] | 1 | 1 | 4 |  |
| CC[C@@H]1N=C(c2ccc(Cl)cc2)c2ccc(CS(=O)(=O)CC)cc2-c2cn(C)c(=O)cc21 [Compound 4047, (S)-5-ethyl-10-((ethylsulfonyl)methyl)-7-(4-chlorophenyl)-2-methyl-2,5-dihydro-3H-benzo[c]pyrido[3,4-e]azepin-3-ketone] | 0.4 | 1 | 2 |  |
| CC[S+]([O-])Cc1ccc2c(c1)-c1cn(C)c(=O)cc1[C@H](C)N=C2c1ccc(F)cc1 (stereo partly drawn) [Compound 4048, (5S)-10-((ethylsulfoxide)methyl)-7-(4-flurophenyl)-2,5-dimethyl-2,5-dihydro-3H-benzo[c]pyrido[3,4-e]azepin-3-ketone] | 2 | 2 | 28 |  |
| CCS(=O)(=O)Nc1ccc2c(c1)-c1cn(C)c(=O)cc1[C@H](C)N=C2c1ccc(F)cc1 [Compound 4049, (S)—N-(7-(4-flurophenyl)-2,5-dimethyl-3-oxo-3,5-dihydro-2H-benzo[c]pyrido[3,4-e]azepin-10-yl)ethylsulfonamide] | 2 | 1 | 1 |  |
| CCNC(=O)Nc1ccc2c(c1)-c1cn(C)c(=O)cc1[C@H](C)N=C2c1ccc(F)cc1 [Compound 4051, (S)-1-ethyl-3-(7-(4-flurophenyl)-2,5-dimethyl-3-oxo-3,5-dihydro-2H-benzo[c]pyrido[3,4-e]azepin-10-yl)urea] | 5 | 3 | 42 |  |
| CCS(=O)(=O)Nc1cc2c(cc1Cl)C(c1ccc(F)cc1)=N[C@@H](C)c1cc(=O)n(C)cc1-2 [Compound 4058] | 1 | 1 |  | 1 |

More lines, main results first:

| IC50 (BRD4 (BD1)) [nM] | IC50 (BRD4 (BD2)) [nM] | IC50 (MV-4-11 cells; [1]) [nM] | Structure (SMILES) | IC50 (MV-4-11 cells; MV4-11, 72 h) [nM] |
| --- | --- | --- | --- | --- |
| 6 | 2 | 55 | CCNS(=O)(=O)c1ccc2c(c1)-c1cn(C)c(=O)cc1[C@H](C)N=C2c1ccc(F)cc1 [Compound 4052, (S)—N-ethyl-7-(4-flurophenyl)-2,5-dimethyl-3-oxo-3,5-dihydro-2H-benzo[c]pyrido[3,4-e]azepin-10-sulfamide] |  |
| 2 | 1 | 7 | CCS(=O)(=O)Cc1ccc2c(c1)-c1cn(C)c(=O)cc1[C@H](C)N=C2c1ccc(OC)cc1 [Compound 4053, (S)-10-((ethylsulfonyl)methyl)-7-(4-methoxylphenyl)-2,5-dimethyl-2,5-dihydro-3H-benzo[c]pyrido[3,4-e]azepin-3-ketone] |  |
| 2 | 1 | 9 | CCS(=O)(=O)Cc1ccc2c(c1)-c1cn(C)c(=O)cc1[C@H](C)N=C2c1ccc(F)c(OC)c1 [Compound 4054, (S)-10-((ethylsulfonyl)methyl)-7-(4-fluoro-3-methoxylphenyl)-2,5-dimethyl-2,5-dihydro-3H-benzo[c]pyrido[3,4-e]azepin-3-ketone] |  |
| 1 | 1 | 1 | CCS(=O)(=O)Nc1cc2c(cc1F)C(c1ccc(F)cc1)=N[C@@H](C)c1cc(=O)n(C)cc1-2 [Compound 4055, (S)—N-(9-fluoro-7-(4-flurophenyl)-2,5-dimethyl-3-oxo-3,5-dihydro-2H-benzo[c]pyrido[3,4-e]azepin-10-yl)ethylsulfonamide] |  |
| 1 | 1 | 32 | CCNC(=O)C[C@@H]1N=C(c2ccc(F)cc2)c2ccc(CS(=O)(=O)CC)cc2-c2cn(C)c(=O)cc21 [Compound 4056, (S)—N-ethyl-2-(10-((ethylsulfonyl)methyl)-7-(4-flurophenyl)-2-methyl-3-oxo-3,5-dihydro-2H-benzo[c]pyrido[3,4-e]azepin-5-yl)acetamide] |  |
| 2 | 1 | 4 | CCS(=O)(=O)Cc1cc2c(cc1OC)C(c1ccc(F)cc1)=N[C@@H](C)c1cc(=O)n(C)cc1-2 [Compound 4057, (S)-10-((ethylsulfonyl)methyl)-7-(4-flurophenyl)-9-methoxyl-2,5-dimethyl-2,5-dihydro-3H-benzo[c]pyrido[3,4-e]azepin-3-ketone] |  |
| 2 | 1 | 7 | C[C@@H]1N=C(c2ccc(F)cc2)c2ccc(CS(C)(=O)=O)cc2-c2cn(C)c(=O)cc21 [Compound 4059, (S)-7-(4-flurophenyl)-2,5-dimethyl-10-((dimethylfulfone)methyl)-2,5-dihydro-3H-benzo[c]pyrido[3,4-e]azepin-3-ketone] |  |
| 2 | 1 | 19 | CCS(=O)(=O)Cc1ccc2c(c1)-c1cn(C)c(=O)cc1[C@H](C(C)C)N=C2c1ccc(F)cc1 [Compound 4060, (S)-10-((ethylsulfonyl)methyl)-7-(4-flurophenyl)-5-isopropyl-2-methyl-2,5-dihydro-3H-benzo[c]pyrido[3,4-e]azepin-3-ketone] |  |
| 2 | 1 | 11 | CCS(=O)(=O)Cc1ccc2c(c1)-c1cn(C)c(=O)cc1[C@H](C)N=C2c1ccc(O)cc1 [Compound 4061, (S)-10-((ethylsulfonyl)methyl)-7-(4-hydroxylphenyl)-2,5-dimethyl-2,5-dihydro-3H-benzo[c]pyrido[3,4-e]azepin-3-ketone] |  |
| 1 | 1 | 1 | CCS(=O)(=O)Nc1cc2c(cc1F)C(c1ccc(Cl)cc1)=N[C@@H](C)c1cc(=O)n(C)cc1-2 [Compound 4062, (S)—N-(7-(4-chlorophenyl)-9-fluoro-2,5-dimethyl-3-oxo-3,5-dihydro-2H-benzo[c]pyrido[3,4-e]azepin-10-yl)ethylsulfonamide] |  |
| 1 | 1 | 3 | CCS(=O)(=O)Cc1cc2c(cc1O)C(c1ccc(F)cc1)=N[C@@H](C)c1cc(=O)n(C)cc1-2 [Compound 4063, (S)-10-((ethylsulfonyl)methyl)-7-(4-flurophenyl)-9-hydroxyl-2,5-dimethyl-2,5-dihydro-3H-benzo[c]pyrido[3,4-e]azepin-3-ketone] |  |
| 2 | 1 | 8 | CCS(=O)(=O)Cc1ccc2c(c1)-c1cn(C)c(=O)cc1[C@H](C)N=C2c1ccc(F)c(O)c1 [Compound 4064, (S)-10-((ethylsulfonyl)methyl)-7-(4-fluoro-3-hydroxylphenyl)-2,5-dimethyl-2,5-dihydro-3H-benzo[c]pyrido[3,4-e]azepin-3-ketone] |  |
